From ChEMBL document CHEMBL1144978, “A new series of potent benzodiazepine gamma-secretase inhibitors” (Bioorg Med Chem Lett, 2003)

Assay: Inhibitory activity against human gamma-secretase using SH-SY5Y cells.
Format: cell-based

Row | SMILES | IC50
1 | CN1C(=O)C(NC(=O)CCc2ccc(F)cc2)N=C(c2ccc(C(N)=O)cc2)c2ccccc21 (centres undefined) | 110 nM
2 | CN1C(=O)C(NC(=O)CCc2ccc(F)c(F)c2)N=C(c2ccc(C(N)=O)cc2)c2ccccc21 (centres undefined) | 29 nM
3 | CN1C(=O)C(NC(=O)CCc2cc(F)cc(F)c2)N=C(c2ccc(C(N)=O)cc2)c2ccccc21 (centres undefined) | 110 nM
4 | CN1C(=O)C(NC(=O)CCc2cccc(Cl)c2Cl)N=C(c2ccc(C(N)=O)cc2)c2ccccc21 (centres undefined) | 22 nM
5 | Cc1ccc(CCC(=O)NC2N=C(c3ccc(C(N)=O)cc3)c3ccccc3N(C)C2=O)cc1 (centres undefined) | 180 nM
6 | CN1C(=O)[C@@H](NC(=O)C(Cc2ccc(Cl)c(Cl)c2)c2ccsc2)N=C(c2ccccc2)c2ccccc21 (some centres undefined) | 100 nM
7 | CN1C(=O)C(NC(=O)CCc2cc(Cl)cc(Cl)c2)N=C(c2ccc(C(N)=O)cc2)c2ccccc21 (centres undefined) | 40 nM
8 | CN1C(=O)C(NC(=O)CCc2c(Cl)cccc2Cl)N=C(c2ccc(C(N)=O)cc2)c2ccccc21 (centres undefined) | 3200 nM
9 | CN1C(=O)C(NC(=O)CCc2ccc(N)cc2)N=C(c2ccc(C(N)=O)cc2)c2ccccc21 (centres undefined) | > 10000 nM
10 | COc1ccccc1CCC(=O)NC1N=C(c2ccc(C(N)=O)cc2)c2ccccc2N(C)C1=O (centres undefined) | 5100 nM
11 | CN1C(=O)[C@@H](NC(=O)[C@@H](Cc2ccc(Cl)c(Cl)c2)NC(=O)OC(C)(C)C)N=C(c2ccccc2)c2ccccc21 | 750 nM
12 | CN1C(=O)C(NC(=O)CCc2cccc(O)c2)N=C(c2ccc(C(N)=O)cc2)c2ccccc21 (centres undefined) | 6800 nM
13 | CN1C(=O)[C@@H](NC(=O)[C@@H](Cc2ccc(Cl)c(Cl)c2)N2CCCC2)N=C(c2ccccc2)c2ccccc21 | 405 nM
14 | C[C@@H](Cc1ccc(Cl)cc1Cl)C(=O)N[C@H]1N=C(c2ccccc2)c2ccccc2N(C)C1=O | 820 nM
15 | COc1ccc(CCC(=O)NC2N=C(c3ccc(C(N)=O)cc3)c3ccccc3N(C)C2=O)cc1 (centres undefined) | 1340 nM
16 | CN1C(=O)[C@@H](NC(=O)[C@H](Cc2ccc(Cl)c(Cl)c2)c2ccc(F)cc2)N=C(c2ccccc2)c2ccccc21 | 15 nM
17 | COc1cccc(CCC(=O)NC2N=C(c3ccc(C(N)=O)cc3)c3ccccc3N(C)C2=O)c1 (centres undefined) | 1600 nM
18 | CC(Cc1ccc(Cl)cc1Cl)C(=O)NC1N=C(c2ccc(C(N)=O)cc2)c2ccccc2N(C)C1=O (centres undefined) | 8 nM
19 | CN1C(=O)[C@@H](NC(=O)[C@H](Cc2ccc(F)c(F)c2)c2ccc(F)cc2)N=C(c2ccccc2)c2ccccc21 | 3.8 nM
20 | CN1C(=O)C(NC(=O)CCc2ccc(Cl)cc2)N=C(c2ccc(C(N)=O)cc2)c2ccccc21 (centres undefined) | 15 nM
21 | CN1C(=O)C(NC(=O)CCc2cccc(Cl)c2)N=C(c2ccc(C(N)=O)cc2)c2ccccc21 (centres undefined) | 93 nM
22 | CN1C(=O)C(NC(=O)CCCc2ccccc2)N=C(c2ccc(C(N)=O)cc2)c2ccccc21 (centres undefined) | 5000 nM
23 | CN1C(=O)C(NC(=O)CCc2ccc(Cl)cc2Cl)N=C(c2ccc(C(N)=O)cc2)c2ccccc21 (centres undefined) | 33 nM
24 | CN1C(=O)C(NC(=O)CCc2ccc(Cl)c(Cl)c2)N=C(c2ccc(C(N)=O)cc2)c2ccccc21 (centres undefined) | 12 nM
25 | CN1C(=O)[C@@H](NC(=O)[C@@H](Cc2ccc(Cl)c(Cl)c2)c2ccccc2)N=C(c2ccccc2)c2ccccc21 | 72 nM

Row | SMILES | IC50
26 | CN1C(=O)C(NC(=O)CCc2ccc(O)cc2)N=C(c2ccc(C(N)=O)cc2)c2ccccc21 (centres undefined) | > 10000 nM
27 | C[C@@H](Cc1ccc(Cl)c(Cl)c1)C(=O)N[C@H]1N=C(c2ccccc2)c2ccccc2N(C)C1=O | 320 nM
28 | CN1C(=O)C(NC(=O)C(C)(C)Cc2ccc(Cl)cc2Cl)N=C(c2ccc(C(N)=O)cc2)c2ccccc21 (centres undefined) | 400 nM
29 | CN1C(=O)C(NC(=O)Cc2ccc(Cl)cc2Cl)N=C(c2ccc(C(N)=O)cc2)c2ccccc21 (centres undefined) | > 10000 nM
30 | CN1C(=O)C(NC(=O)CCc2ccccc2)N=C(c2ccc(C(N)=O)cc2)c2ccccc21 (centres undefined) | 340 nM
31 | C[C@@H](Cc1ccc(F)c(F)c1)C(=O)N[C@H]1N=C(c2ccccc2)c2ccccc2N(C)C1=O | 220 nM
32 | CN1C(=O)[C@@H](NC(=O)C(Cc2ccc(Cl)c(Cl)c2)c2cccs2)N=C(c2ccccc2)c2ccccc21 (some centres undefined) | 37 nM
33 | CN1C(=O)C(NC(=O)/C=C/c2ccc(Cl)cc2Cl)N=C(c2ccc(C(N)=O)cc2)c2ccccc21 (centres undefined) | 4700 nM
34 | Cc1nc(C(Cc2ccc(Cl)c(Cl)c2)C(=O)N[C@H]2N=C(c3ccccc3)c3ccccc3N(C)C2=O)cs1 (some centres undefined) | 640 nM
35 | CN1C(=O)[C@@H](NC(=O)[C@H](Cc2ccc(Cl)c(Cl)c2)c2ccc(Br)cc2)N=C(c2ccccc2)c2ccccc21 | 100 nM
36 | CN1C(=O)C(NC(=O)CCc2ccccc2Cl)N=C(c2ccc(C(N)=O)cc2)c2ccccc21 (centres undefined) | 305 nM
37 | CN1C(=O)C(NC(=O)CCc2cc(Cl)ccc2Cl)N=C(c2ccc(C(N)=O)cc2)c2ccccc21 (centres undefined) | 60 nM
38 | CN1C(=O)[C@@H](NC(=O)[C@H](Cc2ccc(Cl)c(Cl)c2)c2ccccc2)N=C(c2ccccc2)c2ccccc21 | 180 nM
39 | C[C@@H](Cc1ccc(Cl)cc1Cl)C(=O)N[C@@H]1N=C(c2ccccc2)c2ccccc2N(C)C1=O | > 10000 nM
40 | CN1C(=O)C(NC(=O)CCc2cc(C(F)(F)F)cc(C(F)(F)F)c2)N=C(c2ccc(C(N)=O)cc2)c2ccccc21 (centres undefined) | 400 nM
41 | CN1C(=O)[C@@H](NC(=O)[C@H](Cc2ccc(Cl)c(Cl)c2)N2CCCC2)N=C(c2ccccc2)c2ccccc21 | 350 nM
42 | C[C@H](Cc1ccc(Cl)cc1Cl)C(=O)NC1N=C(c2ccc(C(N)=O)cc2)c2ccccc2N(C)C1=O (single isomer, unassigned; diastereomer A) | 42 nM
43 | C[C@@H](Cc1ccc(Cl)cc1Cl)C(=O)NC1N=C(c2ccc(C(N)=O)cc2)c2ccccc2N(C)C1=O (single isomer, unassigned; diastereomer A) | 500 nM
44 | CN1C(=O)[C@@H](NC(=O)C(Cc2ccc(Cl)c(Cl)c2)c2ccncc2)N=C(c2ccccc2)c2ccccc21 (single isomer, unassigned; diastereomer A) | 1360 nM
45 | CC(C)C(Cc1ccc(Cl)c(Cl)c1)C(=O)N[C@H]1N=C(c2ccccc2)c2ccccc2N(C)C1=O (single isomer, unassigned; diastereomer A) | 440 nM
46 | C[C@H](Cc1ccc(Cl)cc1Cl)C(=O)NC1N=C(c2ccc(C(N)=O)cc2)c2ccccc2N(C)C1=O (single isomer, unassigned; diastereomer B) | 920 nM
47 | C[C@@H](Cc1ccc(Cl)cc1Cl)C(=O)NC1N=C(c2ccc(C(N)=O)cc2)c2ccccc2N(C)C1=O (single isomer, unassigned; diastereomer B) | 1.9 nM
48 | CN1C(=O)[C@@H](NC(=O)C(Cc2ccc(Cl)c(Cl)c2)c2ccncc2)N=C(c2ccccc2)c2ccccc21 (single isomer, unassigned; diastereomer B) | 190 nM
49 | CC(C)C(Cc1ccc(Cl)c(Cl)c1)C(=O)N[C@H]1N=C(c2ccccc2)c2ccccc2N(C)C1=O (single isomer, unassigned; diastereomer B) | 240 nM
